Bridge positions count the residues as written; N and C are the ends. Square brackets hold non-standard residues; d marks the D form. Peptide text beside a SMILES is read from it. * marks the point of attachment. DOTA = O=C(O)CN1CCN(CC(=O)O)CCN(CC(=O)*)CCN(CC(=O)O)CC1; dDab = NCC[C@@H](N)C(=O)O; GABA = NCCCC(=O)O
Columns and labels:
Assay in all cases: Receptor autoradiography displacement of 125I-[Leu8,D-Trp22,Tyr25]-somatostatin 28 on membrane pellet sections
Type in all cases: binding
[1] = molecular target: T1, human sst5 (Homo sapiens, UniProt P35346); settings: CHO-K1 cells stably expressing human sst5; sectioned membrane pellets; read-out: IC50 hsst5
T1 construct: expressed in transfected cells; host or cells: CHO-K1
Experimental: (§1) Cell culture CHO-K1 cells stably expressing human sst1 and sst5 were kindly provided by Drs. T. Reisine and G. Singh (University of Pennsylvania, Philadelphia, Pa.) and CCL39 cells stably expressing human sst2, sst3, and sst4 by Dr. D. Hoyer (Novartis Pharma, Basel, Switzerland).
(§2) CHO-K1 cells were grown in Ham's F-12 medium and CCL39 cells in Dulbecco's modified Eagle's medium/Ham's F-12 (1:1) mix, supplemented with 10% fetal bovine serum, 100 μg/mL penicillin and 100 μg/mL streptomycin, in humidified air containing 5% CO2 at 37° C. Geneticin (G418-sulfate; Gibco, USA) was used where necessary to maintain selection pressure at a final concentration of 400 μg/mL for sst2 to sst4—and 285 μg/mL for sst5—expressing cells as described previously (Rens-Domiano S. & Reisine T., Biochemical and functional properties of somatostatin receptors, J. Neurochem., 58:1987-1996 (1992); O'Caroll A. et al., Characterization of cloned human somatostatin receptor SSTR5, Molec. Pharmacol., 46:291-298 (1994); Siehler S. et al., [^125I]Tyr^10-cortistatin14 labels all five somatostatin receptors, Naunyn-Schmiedeberg's Arch. Pharmacol., 357:483-489 (1998).).
(§3) Cells were washed twice with and scraped into ice-cold 0.05 M Tris-CHl (pH 7.4), collected by centrifugation, and homogenized using a rotor/stator slash system (POLYTRON®, Kinematica Inc., Littau, Switzerland) in the same buffer. After centrifugation at 120 g for 5 min at 4° C., the supernatant was collected and centrifuged again at 48,000 g for 30 min at 4° C. The resulting pellet was re-suspended in ice-cold Tris buffer, transferred into a microfuge tube, and centrifuged at 20,000 g for 15 min at 4° C. After withdrawal of the supernatant, the membrane pellet was stored at −80° C.
(§4) Receptor autoradiography was performed on 20 μm thick cryostat (Leitz 1720, Rockleigh, N.J.) sections of the membrane pellets, mounted on microscope slides, and then stored at −20° C.
(§5) IC50 values were calculated after quantification of the data using a computer-assisted image processing system as described previously (Reubi, J. C. et al., Detection of somatostatin receptors in surgical and percutaneous needle biopsy samples of carcinoids and islet cell carcinomas, Cancer Res. 50: 5969-5977 (1990).). Tissue standards (Autoradiographic [^125I] microscales, Amersham) that contain known amounts of isotope, cross-calibrated to tissue-equivalent ligand concentrations were used for quantification (Reubi, J. C., In vitro identification of vasoactive intestinal peptide receptors in human tumors: Implications for tumor imaging, J. Nucl. Med. 36: 1846-1853 (1995).).

[2] = molecular target: T2, human sst3 (Homo sapiens, UniProt P32745); settings: CCL39 cells stably expressing human sst3; sectioned membrane pellets; read-out: IC50 hsst3
T2 construct: expressed in transfected cells; host or cells: CCL39
Experimental: as §1, §2, §3, §4, §5

[3] = molecular target: T3, human sst1 (Homo sapiens, UniProt P30872); settings: CHO-K1 cells stably expressing human sst1; sectioned membrane pellets; read-out: IC50 hsst1
T3 construct: expressed in transfected cells; host or cells: CHO-K1
Experimental: as §1, §2, §3, §4, §5

[4] = molecular target: T4, human sst4 (Homo sapiens, UniProt P31391); settings: CCL39 cells stably expressing human sst4; sectioned membrane pellets; read-out: IC50 hsst4
T4 construct: expressed in transfected cells; host or cells: CCL39
Experimental: as §1, §2, §3, §4, §5

[5] = molecular target: T5, human sst2 (Homo sapiens, UniProt P30874); settings: CCL39 cells stably expressing human sst2; sectioned membrane pellets; read-out: IC50 hsst2
T5 construct: expressed in transfected cells; host or cells: CCL39
Experimental: as §1, §2, §3, §4, §5

T3 sequence (P30872 whole entry): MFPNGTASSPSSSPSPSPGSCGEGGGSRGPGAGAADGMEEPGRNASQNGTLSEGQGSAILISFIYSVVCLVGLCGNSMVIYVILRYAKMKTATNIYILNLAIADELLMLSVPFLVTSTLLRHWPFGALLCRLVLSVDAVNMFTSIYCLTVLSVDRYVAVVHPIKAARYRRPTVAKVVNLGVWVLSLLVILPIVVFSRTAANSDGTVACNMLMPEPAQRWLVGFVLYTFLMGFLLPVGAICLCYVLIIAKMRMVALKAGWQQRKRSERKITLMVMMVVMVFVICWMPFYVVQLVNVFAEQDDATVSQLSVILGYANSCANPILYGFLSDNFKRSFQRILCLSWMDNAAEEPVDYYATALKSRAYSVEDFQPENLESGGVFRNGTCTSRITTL
T2 sequence (P32745 whole entry): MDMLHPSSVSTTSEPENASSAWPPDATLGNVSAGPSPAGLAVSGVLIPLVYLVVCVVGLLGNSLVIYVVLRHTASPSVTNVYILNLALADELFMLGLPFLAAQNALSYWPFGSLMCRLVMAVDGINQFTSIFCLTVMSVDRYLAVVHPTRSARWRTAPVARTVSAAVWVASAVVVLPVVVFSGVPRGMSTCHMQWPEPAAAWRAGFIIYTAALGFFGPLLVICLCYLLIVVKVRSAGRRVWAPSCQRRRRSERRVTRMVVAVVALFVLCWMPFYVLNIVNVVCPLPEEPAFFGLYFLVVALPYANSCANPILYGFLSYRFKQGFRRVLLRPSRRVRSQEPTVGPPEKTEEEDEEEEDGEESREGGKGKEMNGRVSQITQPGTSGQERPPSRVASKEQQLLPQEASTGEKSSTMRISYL
T1 sequence (P35346 whole entry): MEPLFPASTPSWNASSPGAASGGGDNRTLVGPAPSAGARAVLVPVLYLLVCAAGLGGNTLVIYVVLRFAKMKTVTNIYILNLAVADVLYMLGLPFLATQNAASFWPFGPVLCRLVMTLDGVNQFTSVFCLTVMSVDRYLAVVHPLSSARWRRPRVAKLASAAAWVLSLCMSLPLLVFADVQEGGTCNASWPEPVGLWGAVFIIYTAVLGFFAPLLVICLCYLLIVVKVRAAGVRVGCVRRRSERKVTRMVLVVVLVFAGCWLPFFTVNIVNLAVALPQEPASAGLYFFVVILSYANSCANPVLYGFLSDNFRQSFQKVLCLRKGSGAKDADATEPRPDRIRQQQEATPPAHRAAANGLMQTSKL
T4 sequence (P31391 whole entry): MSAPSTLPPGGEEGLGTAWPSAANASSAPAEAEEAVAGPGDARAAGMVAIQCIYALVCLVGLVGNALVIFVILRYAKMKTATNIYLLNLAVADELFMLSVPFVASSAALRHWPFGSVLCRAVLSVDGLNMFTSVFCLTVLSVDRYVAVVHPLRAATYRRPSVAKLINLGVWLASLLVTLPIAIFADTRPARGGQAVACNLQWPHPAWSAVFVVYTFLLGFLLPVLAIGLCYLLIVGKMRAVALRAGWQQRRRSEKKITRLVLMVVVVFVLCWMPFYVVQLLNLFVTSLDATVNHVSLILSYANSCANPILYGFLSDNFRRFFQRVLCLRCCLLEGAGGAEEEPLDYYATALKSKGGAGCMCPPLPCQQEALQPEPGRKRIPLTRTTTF
T5 sequence (P30874 whole entry): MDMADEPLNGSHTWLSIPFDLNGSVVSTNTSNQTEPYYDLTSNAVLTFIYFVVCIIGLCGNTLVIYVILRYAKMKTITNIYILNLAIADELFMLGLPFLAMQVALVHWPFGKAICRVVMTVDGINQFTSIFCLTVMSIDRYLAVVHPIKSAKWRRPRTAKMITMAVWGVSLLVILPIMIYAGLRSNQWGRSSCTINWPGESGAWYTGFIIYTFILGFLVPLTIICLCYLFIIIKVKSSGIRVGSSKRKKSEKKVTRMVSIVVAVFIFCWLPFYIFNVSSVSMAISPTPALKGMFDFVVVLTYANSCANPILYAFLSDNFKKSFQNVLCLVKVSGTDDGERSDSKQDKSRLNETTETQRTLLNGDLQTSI

IC50 [1] | IC50 [2] | IC50 [3] | IC50 [4] | IC50 [5] | Compound
0.57 nM | 1.7 nM | 10.5 nM | 0.68 nM | – | C[C@@H](O)[C@@H]1NC(=O)[C@H](CCCCN)NC(=O)[C@@H](Cc2c[nH]c3ccccc23)NC(=O)[C@H](Cc2ccc(O)cc2)NC(=O)[C@H](Cc2ccccc2)NC(=O)[C@H](CCCNC(=N)N)NC(=O)CCCNC(=O)[C@H](Cc2ccccc2)NC1=O [A with X4 is Tyr and X1 is GABA] (cyclo(F[GABA]RFY[dW]KT); ring closure inferred)
0.8 nM | 2 nM | 24.5 nM | 1 nM | 2.9 nM | C[C@@H](O)[C@@H]1NC(=O)[C@H](CCCCN)NC(=O)[C@@H](Cc2c[nH]c3ccccc23)NC(=O)[C@H](Cc2ccc(O)cc2)NC(=O)[C@H](Cc2ccccc2)NC(=O)[C@H](CCCNC(=N)N)NC(=O)[C@H](N)CCNC(=O)[C@H](Cc2ccccc2)NC1=O [A with X4 is Tyr] (H-[dDab]RFY[dW]KTF; lactam 1-C)
0.8 nM | 1.6 nM | 7.6 nM | 0.9 nM | 3 nM | C[C@@H](O)[C@@H]1NC(=O)[C@H](CCCCN)NC(=O)[C@@H](Cc2c[nH]c3ccccc23)NC(=O)[C@H](Cc2ccccc2)NC(=O)[C@H](Cc2ccccc2)NC(=O)[C@H](CCCNC(=N)N)NC(=O)[C@H](NC(=O)CN2CCN(CC(=O)O)CCN(CC(=O)O)CCN(CC(=O)O)CC2)CCNC(=O)[C@H](Cc2ccccc2)NC1=O [A, Z = DOTA] ({DOTA}-[dDab]RFF[dW]KTF; lactam 1-C)
6.8 nM | 3.2 nM | 172 nM | 15.3 nM | – | C[C@@H](O)[C@@H]1NC(=O)[C@H](CCCCN)NC(=O)[C@@H](Cc2c[nH]c3ccccc23)NC(=O)[C@H](Cc2ccccc2)NC(=O)[C@H](Cc2ccccc2)NC(=O)[C@H](CC(N)=O)NC(=O)CCCNC(=O)[C@H](Cc2ccccc2)NC1=O [minisomatostatin, reference compound] (cyclo(FF[dW]KTF[GABA]N))

Reference: patent publication US7541018B2, “Treatment process using somatostatin analogues” (University of Bern, priority 2001, dated 2009)
